# Where “and” joins values, the source holds several entries; their conditions need not be identical. Equal values may be shown once.
# What was measured:
# [1] = system: N1-S1 rat hepatoma liver tumors; experiment: Therapeutic effect assessment, continuous tail vein injection, rats with liver tumors; type: in vivo; parameters: key to Response: Increase in size of tumor (In %) is classified as “Poor Response”; decrease in size of tumor within 0%-40% is classified as “Mild Response”; decrease in size of tumor to 50% or more or disappearance of tumor is classified as “Good Response.”; conditions: for Effect on the inhibition of tumor growth / Survival of the group in week 8: continuous tail vein injection; for Response / Survival time: individual rats, continuous tail vein injection 0.45 mg/kg for two weeks
# From the text: (§1) The tumor cells for the establishment of the animal model with liver tumor were of a rat hepatoma cell line, N1-S-1, purchased from the American Type Culture Collection (ATCC, P.O. Box 1549, Manassas, Va. 20108 USA), and were subcultured to set up a Master Cell Bank and a Working Cell Bank.
# (§2) The rat hepatoma cells, N1-S1, were suspended cells that were dispersed in Iscove's Modified Dulbecco's Medium (IMDM) (GibcoBRL®) supplemented with 1% penicillin (GibcoBRL®) and 10% fetal bovine serum (GibcoBRL®), and were cultured in an incubator with 5% CO2, at 37° C.
# (§3) When cultured to 1.5×10^6 cell/ml, 4×10^6 cell/0.06 ml of N1-S1 cells were sampled and then implanted into Spawn-Dawley male rats (5-week-old, 150 g) between the liver and liver capsule by surgery, and the wounds were closed by sutures. Rearing of the rats was continued for ten days, and ultrasonic scanning was used to detect any growth of liver tumor and tumor size. After scanning, animals that had developed liver tumors were used to conduct the experiments of tumor growth inhibition, and euthanasia was practiced on the rest of the rats.
# The rats with liver tumors were given normal saline, an injection solution containing arsenic trioxide without neutron irradiation treatment (concentration: 1 mg/ml; animal injection dosage: 0.45 mg/kg), and the injection solution prepared in Example 1 which contained radioactive arsenic trioxide having subjected to neutron irradiation treatment (radioactivity range: 2.77˜3.25 mCi/ml; concentration: 1 mg/ml; and animal injection dosage: 0.45 mg/kg), respectively, via tail vein injection, and the injection was continued for two weeks.
# (§4) Before injection, the size of the liver tumors was examined by ultrasonic scanning. Ultrasonic scanning was conducted in the first week, the second week, and the fifth week, respectively, after start of the injection so as to observe the change in size of the tumor. Finally, the rats were sacrificed for observing whether there was metastasis.
# [2] = system: N1-S1 rat hepatoma liver tumors; experiment: Therapeutic effect assessment, hepatic artery single injection, rats with liver tumors; type: in vivo; conditions: for Therapeutic effect on the tumors: hepatic artery single injection
# From the text: as §1, §2, §3
# The blood vessels of the hepatic artery were dissected from the hepatic tissue of the rats by surgery, and normal saline, an injection solution containing arsenic trioxide without neutron irradiation treatment (concentration: 1 mg/ml; and animal injection dosage: 0.45 mg/kg), and the injection solution prepared in Example 1 which contained radioactive arsenic trioxide having subjected to neutron irradiation treatment (radioactivity range: 2.77˜3.25 mCi/ml; concentration: 1 mg/ml; and animal injection dosage: 0.45 mg/kg dose), were injected respectively via the hepatic artery in single injections.
# as §4, with “injection” for “injection so as”
# [3] = Radiation absorption dose in organs or tissues and tumors (MIRD method, MIRDOSE 3); type: in vivo, rats; conditions: for Radiation absorption dose, Lung: rats with liver tumors
# Description: (§5) A fixed amount of radioactive arsenic trioxide (radioactivity range: 2.77˜3.25 mCi/ml, concentration: 1 mg/ml, animal injection dose: 0.45 mg/kg) prepared in Example 1 was injected into the rats with liver tumors through the hepatic artery and tail vein, respectively.
# (§6) The rats were sacrificed by taking a large amount of blood from the heart at hours 2, 4, 16, 24 and 48, respectively, after injection, and the blood, hearts, lungs, livers, spleens, kidneys, intestines, bladders, muscles, and tumors were removed. These tissues or organs were placed in respective tubes, and their irradiation intensity was measured by a gamma counter (Wallac 1470 WIZARD). The content percentage of arsenic trioxide per each gram of the tissue or organ was calculated using standard curve regression. There were two or three experimented rats in each experimental group.
# Radioactive arsenic trioxide was injected respectively into the tail vein and hepatic artery of the rats by I.V. and I.H. The dosage was calculated using MIRD method, and the residence time in each of the organs and the tumors was calculated using Excel software. Finally, the radiation absorption dose in each of the organs or tissues and the tumors was calculated using MIROSE 3 software.
# [4] = system: N1-S1 rat hepatoma liver tumors; experiment: Therapeutic effect assessment, liver tumor direct injection, rats with liver tumors; type: in vivo; conditions: for Response / Survival time: individual rats, liver tumor direct injection 0.45 mg/kg once every week, twice in total; for Change of tumor size 4 weeks after injection: liver tumor direct injection
# From the text: as §1, §2, §3
# The rats with liver tumors were subjected to surgery. After the locations of the liver tumors were found, the tumors were directly injected with normal saline, an injection containing arsenic trioxide without neutron irradiation treatment (concentration: 1 mg/ml; animal injection dosage: 0.45 mg/kg), and the injection prepared in Example 1 which contained radioactive arsenic trioxide having subjected to neutron irradiation treatment (radiation activity range: 2.77˜3.25 mCi/ml; concentration: 1 mg/ml of concentration; and animal injection dosage: 0.45 mg/kg), respectively, once every week, twice in total.
# as §4, with “injection” for “injection so as”
# [5] = Biodistribution test of radioactive arsenic trioxide in rats with liver tumors (gamma counter); type: in vivo
# Description: Hepatic Artery Injection:
# The hepatic artery was dissected from the hepatic tissue of the rats by surgery. A PE-10 tube was introduced into the hepatic artery, and the test solution containing neutron-irradiated arsenic trioxide as prepared in Example 1 was injected into the hepatic artery. The PE-10 tube was removed after injection, and a surgical thread was used to bind and fix the blood vessels, followed by suturing of the wound.
# The test injection solution containing neutron-irradiated arsenic trioxide as prepared in Example 1 was injected into the tail vein using a syringe with needle no. 25.
# as §5, §6
# Some of the organs and tissues (blood, kidneys and livers) were transferred to the Institute of Nuclear Energy Research for conducting Inductively Coupled Plasma Mass Spectrometry (ICP-MAS) so as to observe the biodistribution of arsenic trioxide in the tumors and organs or tissues.
# [6] = system: acute promyelocytic leukemia cell lines; conditions: cited from earlier work
# [7] = system: acute promyelocytic leukemia; conditions: cited from earlier work
# [8] = individual rats, hepatic artery single injection 0.45 mg/kg
# [9] = individual rats, hepatic artery single injection 0.45 mg/kg, 0.45 mg/kg
compound,measurement,setting,value
"O=[76As]O[76As]=O (stereo not shown) [Radioactive arsenic trioxide, radioactive arsenic trioxide]",Effect on the inhibition of tumor growth,[1],most noticeable
same,Survival of the group in week 8,[1],all alive in week 8
same,Response,[1],Good (decrease in size of tumor to 50% or more or disappearance of tumor is classified as “Good Response.”)
same,Survival time,[1],>56 days
same,Therapeutic effect on the tumors,[2],complete disappearance of the tumors in some of the animals 2 weeks after injection
same,Response,[2]; [8],Good (decrease in size of tumor to 50% or more or disappearance of tumor is classified as “Good Response.”)
same,Survival time,[2]; [8],>42 days
same,Tumor Size After injection Week 2,[2]; [9],Disappeared
same,Tumor Size After injection Week 5,[2]; [9],Disappeared
same,"Radiation absorption dose, Intestine",[3]; IH (hepatic artery injection),0.23 mGy/MBq
same,"Radiation absorption dose, Kidney",[3]; IH (hepatic artery injection),0.28 mGy/MBq
same,"Radiation absorption dose, Liver",[3]; IH (hepatic artery injection),0.21 mGy/MBq
same,"Radiation absorption dose, Muscle",[3]; IH (hepatic artery injection),0.12 mGy/MBq
same,"Radiation absorption dose, Spleen",[3]; IH (hepatic artery injection),0.95 mGy/MBq
same,"Radiation absorption dose, Tumor",[3]; IH (hepatic artery injection),21 mGy/MBq
same,"Radiation absorption dose, Lung",[3]; IH (hepatic artery injection),0.56 mGy/MBq
same,"Radiation absorption dose, Intestine",[3]; IV (tail vein injection),0.16 mGy/MBq
same,"Radiation absorption dose, Kidney",[3]; IV (tail vein injection),0.25 mGy/MBq
same,"Radiation absorption dose, Liver",[3]; IV (tail vein injection),0.13 mGy/MBq
same,"Radiation absorption dose, Muscle",[3]; IV (tail vein injection),0.06 mGy/MBq
same,"Radiation absorption dose, Spleen",[3]; IV (tail vein injection),0.76 mGy/MBq
same,"Radiation absorption dose, Tumor",[3]; IV (tail vein injection),4.26 mGy/MBq
same,"Radiation absorption dose, Lung",[3]; IV (tail vein injection),0.47 mGy/MBq
same,Response,[4],Good (decrease in size of tumor to 50% or more or disappearance of tumor is classified as “Good Response.”)
same,Survival time,[4],>30 days
same,Change of tumor size 4 weeks after injection,[4],the tumors in all of the animals shrank in 4 weeks of injection
same,"Contents of radioactive arsenic trioxide in the heart, the lung, and the spleen","[5]; 0.45 mg/kg, hepatic artery and tail vein injection, hours 2-48 (FIG. 3)",1˜3 % ID/g
same,Residual contents in all the organs or tissues,"[5]; 48 hours after injection, IV and IH (FIG. 3)",dropped
same,Time of peak content of radioactive arsenic trioxide in the liver tumor,"[5]; hepatic artery injection, 0.45 mg/kg (FIG. 2)",between hours 2 and 4
same,Time after which contents in the liver tumors by the two routes reached identical equivalent values,[5]; hepatic artery vs tail vein injection (FIG. 2),16 h
same,Contents in the bladder and urine relative to other tested organs,[5]; hour 4 after injection via hepatic artery and tail vein,second only to that in the tumor
arsenic trioxide [reference compound],Effect on the inhibition of tumor growth,[1],not significant
same,Survival of the group in week 8,[1],still alive in week 8
same,Response,[1]; 0.45 mg/kg,Poor (3×) and Mild (decrease in size of tumor within 0%-40% is classified as “Mild Response”) (2×)
same,Survival time,[1]; 0.45 mg/kg,14 day (2×) and 42 day and 7 day and 40 day
same,Therapeutic effect on the tumors,[2],not satisfactory
same,Response,[2]; [9],Mild (decrease in size of tumor within 0%-40% is classified as “Mild Response”) (2×) and Poor (2×)
same,Survival time,[2]; [9],>42 day (2×) and 36 day and 39 day
same,Concentrations inducing cell differentiation,[6]; low concentrations,0.1 to 0.5 µmol/L
same,Concentrations triggering apoptosis,[6]; relatively high concentrations,0.5 to 2 µmol/L
same,Survival time,[4],>30 days
same,Response,[4]; 0.45 mg/kg,Mild (decrease in size of tumor within 0%-40% is classified as “Mild Response”) and Poor and Good (decrease in size of tumor to 50% or more or disappearance of tumor is classified as “Good Response.”)
same,Change of tumor size 4 weeks after injection,[4],"slightly smaller than the size of the tumors 1 week after injection, while the tumors in some of the animals still grew"
same,"Side effects (gastrointestinal disturbance, facial edema and cardiac toxicity)","[7]; low-dose, 0.08 mg/kg daily for 28 days intravenously",reduced
same,complete remission rate,"[7]; patients with relapsed acute promyelocytic leukemia, intravenously 0.08 mg/kg daily for 28 days",80%
same,complete remission (CR) rate,"[7]; patients with relapsed acute promyelocytic leukemia, intravenously 10 mg/d",90%

# — patent US7803350B2, “Radioactive arsenic-containing compounds and their uses in the treatment of tumors” (Institute of Nuclear Energy Research Rocaec, priority 2003, dated 2010)
